Laboratory results reported in EP0035270A2, “Heterocyclic compounds, compositions thereof, their preparation and use” (THE WELLCOME FOUNDATION LIMITED, priority 1980, dated 1981).

Columns and labels:
[1] = LD50's in mice; details: mouse, in vivo, ip; i.p. administration to mice
Experimental: The LD50's of compounds of formula were determined by conventional techniques by i.p. administration to mice.

[2] = Effect of varying daily oral doses of 1-n-decyl pyrazolidin-3-one on rat bodyweight; format: in vivo, Male Sprague-Dawley rats; details: for Percent Change from Initial Bodyweight (Mean ± S.E.M.) Day 5: Day 5, rats approx. 575 grams; for Percent Change from Initial Bodyweight (Mean ± S.E.M.) Day 10: Day 10, rats approx. 575 grams
Experimental: Male Sprague-Dawley rats were acclimatized to laboratory conditions for approximately four weeks prior to the experiment being carried out. The rats were maintained on a 12 hr/12 hr light dark cycle and had continuous access to food and water. Rats weighing approx. 575 grams were housed 4 to a cage and each rat treated daily with an oral injection of either saline vechicle or one of three doses of 1-n-decylpyrazolidinone dissolved in saline vehicle. The saline vehicle was prepared fresh each day.

[3] = Effect of pyrazolidinones on bodyweight of rats (single oral dose); format: in vivo; details: 0.22 m moles/kilogram bodyweight, two days after administration
Experimental: The compound of formula (I) prepared by the methods described in Examples 1 and 2 were administered orally to rats at a dose corresponding to 0.22 m moles/kilogram bodyweight. Two days after administration the weight of the treated rats was compared with control and the difference expressed as a percentage of the weight of the control animals.

[4] = Effect of 1-n-decyl pyrazolidin-3-one on rat bodyweight and food consumption; format: in vivo, Male Sprague-Dawley rats
Experimental: Male Sprague-Dawley rats were acclimatized as described in Example 6. The Rats (approx. 300 grams) were housed individually to present measurement of food consumption as well as bodyweight. Animals were treated once daily by oral […] guage either with saline or with 1-n-decyl pyrazolidin-3-one (25 mg/kg) in saline vehicle. Measurement of bodyweight and food consumption was […] during the recovery days, when treatment with drug has stopped.

`CCCCCCCCCCCCCCN1CCC(=O)N1.Cl` [CH3(CH2)13-, 1-(n-tetradecyl)-3-pyrazolidone hydrochloride] showed an LD50 [1] of 350 mg/kg.
In the case of `CCCCCCCCCCN1CCC(=O)N1.Cl` [n-decyl, 1-(n-decyl)-3-pyrazolidone hydrochloride], the “Percent Change from Initial Bodyweight (Mean ± S.E.M.) Day 5” value (shortened to “Percent Change … (Mean ± S.E.M.) Day 5”) ([2]; 10 mg/kg p.o. daily) is reported as -2.7 ± 0.3%, the “Percent Change from Initial Bodyweight (Mean ± S.E.M.) Day 10” value (“Percent Change … (Mean ± S.E.M.) Day 10” below) ([2]; 10 mg/kg p.o. daily) is reported as -1.1 ± 0.4% and the “Percent Change … (Mean ± S.E.M.) Day 5” value ([2]; 15 mg/kg p.o. daily) is reported as -3.3 ± 1.0%. The “Percent Change … (Mean ± S.E.M.) Day 10” value ([2]; 15 mg/kg p.o. daily) was -9.6 ± 1.7%, the “Percent Change … (Mean ± S.E.M.) Day 5” value ([2]; 20 mg/kg p.o. daily) was -3.8 ± 0.6% and the “Percent Change … (Mean ± S.E.M.) Day 10” value ([2]; 20 mg/kg p.o. daily) was -11.1 ± 1.8%. The “% weight deviation from control” value [3] was -10.9%, the LD50 [1] was 500 mg/kg and the “Percent change in amount of food consumed (Mean ± S.E.M.)” value (shortened to “Percent change in amount”) ([4]; 25 mg/kg p.o. once daily, Treatment Day 2) was -1 ±6%. The “Percent change in amount” value ([4]; after 25 mg/kg p.o. once daily, Recovery Day 2 (treatment stopped)) was -8 ±7% and the “Percent change in amount” value ([4]; after 25 mg/kg p.o. once daily, Recovery Day 3 (treatment stopped)) was “+13 ±8%”.
In the case of `CCCCCCCCCN1CCC(=O)N1.Cl` [n-nonyl, 1-(n-nonyl)-3-pyrazolidone hydrochloride], the LD50 [1] is reported as 210 mg/kg.
Compound `CCCCCCCCN1CCC(=O)N1.Cl` [n-octyl, 1-(n-octyl)-3-pyrazolidone hydrochloride] has an LD50 [1] of 250 mg/kg.
Compound `CCCCCCCCCCCN1CCC(=O)N1.Cl` [n-undecyl, 1-(n-undecyl)-3-pyrazolidone hydrochloride] has an LD50 [1] of 350 mg/kg.
